# Measurements: patent US20130053357A1, “SKIN IRRITATION SUPPRESSANT AND TRANSDERMAL PREPARATION” (HISAMITSU PHARMACEUTICAL CO., INC., priority 2010, published 2013)
# Where a name gives a salt, the structure may show the parent alone. Read-outs that look alike come from different tables or passages of the source.
# What was measured:
# [1] = system: croton oil-induced mouse ear swelling; experiment: Suppression of croton oil-induced mouse ear swelling reaction (Experiment 3); assay type: in vivo; conditions: for Inhibition Ratio Of Ear Swelling: ddY female mouse, 1% by mass of test substance in 2% croton oil solution, 25 μL on ears, auricular thickness 6 hours after; for Effect on croton oil-induced mouse ear swelling reaction (in words): summary of Table 3
# From the text: <Suppression of Croton Oil-Induced Mouse Ear Swelling Reaction by the Test Substances>
# Suppression of mouse ear swelling was examined through the use of croton oil (Wako Pure Chemical Industries, Ltd.) as a swelling inducer. A 7-week-old ddY female mouse (SPF) was subjected to an experiment. As test substances, cholesterol, glycyrrhizin, glycyrrhetinic acid, squalene, ergosterol, squalane and lanosterol were used. As a vehicle, acetone (Wako Pure Chemical Industries, Ltd.) was used.
# Experiments were conducted by the following group composition. • Positive Control Group: A group which received only the vehicle as a primary test solution, and one hour after, received a 2% croton oil solution as a secondary test solution. • Test Substance Group: A group in which only the vehicle was administered as a primary test solution, and one hour after, a 2% croton oil solution including 1% by mass of test substance was administered as a secondary test solution.
# An inhibition ratio of ear swelling was calculated as below. In this test, a […] inflammation model is used to examine immediate swelling reactions. In accordance with the group composition, 25 μL of the primary test solution was uniformly coated on back sides of both ears in an etherize mouse, and one hour after, 25 μL of the secondary test solution was uniformly coated in accordance with the group composition. Prior to coating of the secondary test solution, a thickness of auricle was measured by DIAL […] GAUGE (OZAKI MFG CO., LTD.). Furthermore, the secondary test solution was administered, and 6 hours after, the auricular thickness was measured in the same way as mentioned above, and an increased amount of the auricular thickness was set by deducting the thickness measured prior to administration of the secondary test solution. The inhibition ratio of ear swelling was calculated as below.
# Inhibition ratio of ear swelling (%)=(increased amount of auricular thickness in Test Substance Group−increased amount of auricular thickness in Negative Control Group)/(increased amount of auricular thickness in Positive Control Group−increased amount of auricular thickness in Negative Control Group)×100
# [2] = system: human three-dimensional culture epidermal model (LabCyte EPI-MODEL); experiment: Production of skin irritation mediators induced by PMA in human three-dimensional epidermal culture model (Experiment 1); assay type: cell-based; conditions: for activity at 0.01 % / activity at 1 % / activity at 0.1 %: Homo sapiens, 48 hours; for activity at 0.01 %: test substance 0.01 mass % with PMA in olive oil; for Effect on skin irritation mediator production by PMA (in words): summary of Table 1; for activity at 1 %: test substance 1 mass % with PMA in olive oil; for activity at 0.1 %: test substance 0.1 mass % with PMA in olive oil
# From the text: Changes in production amounts of skin irritation mediators by test substances were examined when cutaneous irritants were caused to act on a human three-dimensional culture epidermal model.
# (§1) A human three-dimensional epidermal culture model obtained by multilayer-culturing a human normal epidermal cell (LabCyte EPI-MODEL, manufactured by Japan Tissue Engineering Co., Ltd.) was used. LabCyte is a cultured skin cultured in a transwell. For the experiment, LabCyte was used with the transwell.
# As test substances, there were used cholesterol (manufactured by Wako Pure Chemical Industries, Ltd.), β-sitosterol (manufactured by TAMA BIOCHEMICAL CO., LTD.), α-spinasterol (manufactured by ChromaDex, Inc.), ergosterol (manufactured by Wako Pure Chemical Industries, Ltd.), campesterol (manufactured by TAMA BIOCHEMICAL CO., LTD.), glycyrrhizin (manufactured by Wako Pure Chemical Industries, Ltd.), glycyrrhetinic acid (manufactured by Wako Pure Chemical Industries, Ltd.), ginsenoside (manufactured by Wako Pure Chemical Industries, Ltd.), squalene (manufactured by Wako Pure Chemical Industries, Ltd.), squalane (manufactured by Tokyo Chemical Industry Co., Ltd.) and lanosterol (manufactured by ChromaDex, Inc.), which are candidates of a skin irritation suppressant.
# As skin irritants, Phorbol 12-Myristate 13-Acetate (PMA, manufactured by Wako Pure Chemical Industries, Ltd.) was used. In addition, as vehicle, olive oil (manufactured by Wako Pure Chemical Industries, Ltd.) was used.
# Experiments were conducted by the following group composition. • PMA Only Group: A group with addition of only 0.00001 mol of PMA dispersed in a vehicle, as a test solution. • Test Substance Group: A group with addition of 0.00001 mol of PMA and the test substance which were dispersed in a vehicle, as a test solution.
# (§2) The experiment was conducted as below. First, LabCyte was put into a 24-well assay plate. Then, 1 ml of assay medium (Japan Tissue Engineering Co., Ltd.) was added so that it was brought into contact with a bottom surface of the cultured skin in each well of the 24-well assay plate, and was pre-cultured in an incubator with 5% of carbon dioxide concentration at 37° C. for 1 hour.
# Next, a cell survival rate was measured by the MTT method after causing the test solutions of each group to act. Specifically, 50 μL of the test solution of each group was added to the surface of the LabCyte after preculture, was cultured in the incubator with 5% of carbon dioxide concentration at 37° C. for 48 hours, then was transferred to the assay medium comprising 0.5 mg/ml of MTT reagent, and was cultured in the incubator with 5% of carbon oxide level at 37° C. for 3 hours. Then, LabCyte was immersed in 0.3 ml of an isopropanol solution, and the produced blue-purple formazan was extracted for 2 hours. After extraction, an absorbance at 570 nm was measured by a 96 microplate reader. The cell survival rate was calculated as below.
# Cell survival rate (%)=(absorbance of Test Substance Group)/(absorbance of PMA Only Group)×100
# Subsequently, a production amount of the skin irritation mediator at a test substance concentration with 80% or more of cell survival rate was measured. As skin irritation mediators, PGE2, IL-1α, IL-6, IL-8 were measured.
# (§3) The test solutions of each group were added to the cells, the culture solutions incubated for 48 hours were collected, and a production amount of each skin irritation mediator was measured. The skin irritation mediator was measured by using a commercially available ELISA kit (manufactured by R&D Systems, Inc.). A relative production amount of the skin irritation mediator in each test substance was calculated as below, when the production amount of the skin irritation mediator in the PMA Only Group was set to 100.
# Relative production amount=(production amount of the mediator in Test Substance Group)/(production amount of the mediator in PMA Only Group)×100
# [3] = system: human three-dimensional culture epidermal model (LabCyte EPI-MODEL); experiment: Suppression by cholesterol of skin irritation mediator production induced by asenapine and LADA in a human epidermal cell (Experiment 6); assay type: cell-based; conditions: without or with 1% by mass of cholesterol
# Protocol: as §1, §2, §3
# Cholesterol was used as a test substance. Asenapine and lauric acid diethanolamide (LADA) were used as the cutaneous irritants.
# Tests were conducted by the following group composition. • Solvent Group: A group including only vehicle. Olive oil was used as a vehicle. • Skin Irritant Only Group: A group with addition of only cutaneous irritant dispersed in a vehicle, as a test solution. The concentration of asenapine maleate to be added was 0.6% (asenapine group), and that of LADA was 0.03% (LADA group). • Skin Irritant Plus Cholesterol Group: A group with addition of the drug and 1% by mass of cholesterol which were dispersed in a vehicle, as a test solution.
# The experiment was conducted while other conditions were set in the same manner as Experiment 1.
# [4] = read-out: Relative Production Amount of Skin Irritation Mediator when Production Amount in PMA Only Group is Set to 100: IL-1α
# [5] = read-out: Relative Production Amount of Skin Irritation Mediator when Production Amount in PMA Only Group is Set to 100: IL-6
# [6] = read-out: Relative Production Amount of Skin Irritation Mediator when Production Amount in PMA Only Group is Set to 100: IL-8
# [7] = read-out: Relative Production Amount of Skin Irritation Mediator when Production Amount in PMA Only Group is Set to 100: PGE2
# [8] = asenapine maleate 0.6% in olive oil
smiles,measurement,setting,value
"CC1(C)[C@@H](O[C@H]2O[C@H](C(=O)O)[C@@H](O)[C@H](O)[C@H]2O[C@@H]2O[C@H](C(=O)O)[C@@H](O)[C@H](O)[C@H]2O)CC[C@]2(C)[C@H]3C(=O)C=C4[C@@H]5C[C@@](C)(C(=O)O)CC[C@]5(C)CC[C@@]4(C)[C@]3(C)CC[C@@H]12 [Glycyrrhizin, glycyrrhizin]",Inhibition Ratio Of Ear Swelling,[1],34.1%
same,Effect on croton oil-induced mouse ear swelling reaction (in words),[1],suppress croton oil-induced mouse ear swelling reaction
same,activity at 0.01 %,[2]; [4],85%
same,activity at 0.01 %,[2]; [5],105%
same,activity at 0.01 %,[2]; [6],154%
same,activity at 0.01 %,[2]; [7],114%
same,Effect on skin irritation mediator production by PMA (in words),[2],exhibited effects of suppressing the skin irritation mediator production by PMA
"CC(C)[C@@H](C)/C=C/[C@@H](C)[C@H]1CC[C@H]2C3=CC=C4C[C@@H](O)CC[C@]4(C)[C@H]3CC[C@]12C [Ergosterol, ergosterol]",Inhibition Ratio Of Ear Swelling,[1],38.1%
same,Effect on croton oil-induced mouse ear swelling reaction (in words),[1],suppress croton oil-induced mouse ear swelling reaction
same,activity at 1 %,[2]; [4],71%
same,activity at 1 %,[2]; [5],81%
same,activity at 1 %,[2]; [6],111%
same,activity at 1 %,[2]; [7],20%
same,Effect on skin irritation mediator production by PMA (in words),[2],exhibited effects of suppressing the skin irritation mediator production by PMA
"CN1CC2c3ccccc3Oc3ccc(Cl)cc3C2C1 (stereo not drawn) [Asenapine, asenapine maleate]",Production Amount of Skin Irritation Mediator: IL-1A,[3]; [8],17.24 pg/mL
same,Production Amount of Skin Irritation Mediator: IL-6,[3]; [8],0.00 pg/mL
same,Production Amount of Skin Irritation Mediator: IL-8,[3]; [8],174.90 pg/mL
same,Production Amount of Skin Irritation Mediator: PGE2,[3]; [8],125.85 pg/mL
same,Production Amount of Skin Irritation Mediator: TNFA,[3]; [8],0.00 pg/mL
"CC1(C)[C@@H](O)CC[C@]2(C)[C@H]3C(=O)C=C4[C@@H]5C[C@@](C)(C(=O)O)CC[C@]5(C)CC[C@@]4(C)[C@]3(C)CC[C@@H]12 [Glycyrrhetinic Acid, glycyrrhetinic acid]",Inhibition Ratio Of Ear Swelling,[1],53.4%
same,Effect on croton oil-induced mouse ear swelling reaction (in words),[1],suppress croton oil-induced mouse ear swelling reaction
same,activity at 0.01 %,[2]; [4],77%
same,activity at 0.01 %,[2]; [5],46%
same,activity at 0.01 %,[2]; [6],81%
same,activity at 0.01 %,[2]; [7],48%
same,Effect on skin irritation mediator production by PMA (in words),[2],exhibited effects of suppressing the skin irritation mediator production by PMA
"CCCCCCCCCCCC(=O)N(CCO)CCO [LADA, lauric acid diethanolamide]",Production Amount of Skin Irritation Mediator: IL-1α,[3]; LADA 0.03% in olive oil,29.85 pg/mL
same,Production Amount of Skin Irritation Mediator: IL-6,[3]; LADA 0.03% in olive oil,0.00 pg/mL
same,Production Amount of Skin Irritation Mediator: IL-8,[3]; LADA 0.03% in olive oil,160.29 pg/mL
same,Production Amount of Skin Irritation Mediator: PGE2,[3]; LADA 0.03% in olive oil,30.64 pg/mL
same,Production Amount of Skin Irritation Mediator: TNFα,[3]; LADA 0.03% in olive oil,0.00 pg/mL
"CC(C)=CCC/C(C)=C/CC/C(C)=C/CC/C=C(\C)CC/C=C(\C)CCC=C(C)C [Squalene, squalene]",Inhibition Ratio Of Ear Swelling,[1],44.4%
same,Effect on croton oil-induced mouse ear swelling reaction (in words),[1],suppress croton oil-induced mouse ear swelling reaction
same,activity at 0.01 %,[2]; [4],10%
same,activity at 0.01 %,[2]; [5],0%
same,activity at 0.01 %,[2]; [6],131%
same,activity at 0.01 %,[2]; [7],88%
same,Effect on skin irritation mediator production by PMA (in words),[2],exhibited effects of suppressing the skin irritation mediator production by PMA
"CC(C)CCCC(C)CCCC(C)CCCCC(C)CCCC(C)CCCC(C)C (stereo not drawn) [Squalane, squalane]",Inhibition Ratio Of Ear Swelling,[1],61.6%
same,Effect on croton oil-induced mouse ear swelling reaction (in words),[1],suppress croton oil-induced mouse ear swelling reaction
same,activity at 0.1 %,[2]; [4],18%
same,activity at 0.1 %,[2]; [5],55%
same,activity at 0.1 %,[2]; [6],39%
same,activity at 0.1 %,[2]; [7],41%
same,Effect on skin irritation mediator production by PMA (in words),[2],exhibited effects of suppressing the skin irritation mediator production by PMA
